Experimental data taken from PubChem BioAssay AID2060885 (Molecular Pharmacology Branch, DTP, NCI, 2025).

System: NCI-H23 complex spheroids with HUVEC/MSC, viability
Experiment: Anticancer human tumor NCI-H23 cell line growth inhibition [RAS];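 note: spheroids exposed to compound for 7 days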;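 for viability, T/C: 100% = DMSO vehicle control viability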
Settings: for IC50: curve of first compound; for viability, T/C: stronger effect = lower value
Method in brief: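 Multi-cell-type spheroids: tumor cells plus HUVEC endothelial cells and mesenchymal stem cells. RAS-pathway inhibitors were combined with targeted agents, each dosed in half-log steps down from clinical Cmax, or from 10 microM when Cmax was unknown.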

[1] = second compound 0.0316 µM, first compound 0.0316 µM
[2] = second compound 0.0316 µM, first compound 0.1 µM
[3] = second compound 0.0316 µM, first compound 0.316 µM
[4] = second compound 0.0316 µM, first compound 1 µM
[5] = second compound 0.1 µM, first compound 0.0316 µM
[6] = second compound 0.1 µM, first compound 0.1 µM
[7] = second compound 0.1 µM, first compound 0.316 µM
[8] = second compound 0.1 µM, first compound 1 µM
[9] = second compound 0.316 µM, first compound 0.0316 µM
[10] = second compound 0.316 µM, first compound 0.1 µM
[11] = second compound 0.316 µM, first compound 0.316 µM
[12] = second compound 0.316 µM, first compound 1 µM
[13] = second compound 1 µM, first compound 0.0316 µM
[14] = second compound 1 µM, first compound 0.1 µM
[15] = second compound 1 µM, first compound 0.316 µM
[16] = second compound 1 µM, first compound 1 µM
[17] = second compound 3.16 µM, first compound 0.0316 µM
[18] = second compound 3.16 µM, first compound 0.1 µM
[19] = second compound 3.16 µM, first compound 0.316 µM
[20] = second compound 3.16 µM, first compound 1 µM
[21] = second compound 10 µM, first compound 0.0316 µM
[22] = second compound 10 µM, first compound 0.1 µM
[23] = second compound 10 µM, first compound 0.316 µM
[24] = second compound 10 µM, first compound 1 µM

With Cc1nc(N2CCC3(CC2)COC(C)C3N)c(CO)nc1Sc1ccnc(N)c1Cl (configuration not stated) + C#Cc1c(F)ccc2cc(O)cc(-c3ncc4c(N5CC6CCC(C5)N6)nc(OCC56CCCN5CC(F)C6)nc4c3F)c12 the IC50 (second compound 0.0316 µM) was greater than 10000 nM, the IC50 (second compound 0.1 µM) was 769 nM and the IC50 (second compound 0.316 µM) was 391 nM. The IC50 (second compound 1 µM) was 216 nM, the IC50 (second compound 3.16 µM) was 66.2 nM and the IC50 (second compound 10 µM) was less than 31.6 nM. It also gave a viability, T/C [1] of 101%, a viability, T/C [2] of 110% and a viability, T/C [3] of 68.5%. It also gave a viability, T/C [4] of 62.7%, a viability, T/C (second compound 0.0316 µM, first compound 3.16 µM) of 42.8% and a viability, T/C (second compound 0.0316 µM, first compound 10 µM) of 48.3%. The viability, T/C [5] was 115%, the viability, T/C [6] was 110% and the viability, T/C [7] was 64.8%. For the same compound, the viability, T/C [8] was 48.6%, the viability, T/C (second compound 0.1 µM, first compound 3.16 µM) was 44.2% and the viability, T/C (second compound 0.1 µM, first compound 10 µM) was 41.5%. For the same compound, the viability, T/C [9] was 106%, the viability, T/C [10] was 95.2% and the viability, T/C [11] was 51.4%. For the same compound, the viability, T/C [12] was 45.5%, the viability, T/C (second compound 0.316 µM, first compound 3.16 µM) was 36% and the viability, T/C (second compound 0.316 µM, first compound 10 µM) was 39.5%. For the same compound, the viability, T/C [13] was 78.7%, the viability, T/C [14] was 60.7% and the viability, T/C [15] was 45.2%. For the same compound, the viability, T/C [16] was 35.3%, the viability, T/C (second compound 1 µM, first compound 3.16 µM) was 35.2% and the viability, T/C (second compound 1 µM, first compound 10 µM) was 32.6%. It also gave a viability, T/C [17] of 57.8%, a viability, T/C [18] of 45.7% and a viability, T/C [19] of 35.8%. For the same compound, the viability, T/C [20] was 29.6%, the viability, T/C (second compound 3.16 µM, first compound 3.16 µM) was 30.9% and the viability, T/C (second compound 3.16 µM, first compound 10 µM) was 26.9%. It also gave a viability, T/C [21] of 38.1%, a viability, T/C [22] of 35.2% and a viability, T/C [23] of 31.7%. The viability, T/C [24] was 26.1%, the viability, T/C (second compound 10 µM, first compound 3.16 µM) was 26.8% and the viability, T/C (second compound 10 µM, first compound 10 µM) was 18.2%.

C[C@@H](NC(=O)c1ncnc(N)c1Cl)c1ncc(C(=O)Nc2cc(C(F)(F)F)c(Cl)cn2)s1 + CCn1c(-c2cccnc2C(C)OC)c2c3cc(ccc31)N1CCOC(CC(NC(=O)C(C(C)C)N(C)C(=O)C3(F)CCN(C(=O)C#CC(C)(C)N(C)C)CC3)C(=O)N3CCCC(N3)C(=O)OCC(C)(C)C2)C1 was tested, and the IC50 (second compound 0.000949 µM) was less than 31.6 nM, the IC50 (second compound 0.003 µM) was less than 31.6 nM and the IC50 (second compound 0.00949 µM) was less than 31.6 nM. It also gave an IC50 (second compound 0.03 µM) of less than 31.6 nM, an IC50 (second compound 0.0949 µM) of less than 31.6 nM and an IC50 (second compound 0.3 µM) of less than 31.6 nM. It also gave a viability, T/C (second compound 0.000949 µM, first compound 0.0316 µM) of 36.4%, a viability, T/C (second compound 0.000949 µM, first compound 0.1 µM) of 32.5% and a viability, T/C (second compound 0.000949 µM, first compound 0.316 µM) of 24.2%. For the same compound, the viability, T/C (second compound 0.000949 µM, first compound 1 µM) was 34.2%, the viability, T/C (second compound 0.000949 µM, first compound 3.16 µM) was 32.5% and the viability, T/C (second compound 0.000949 µM, first compound 10 µM) was 25.4%. For the same compound, the viability, T/C (second compound 0.003 µM, first compound 0.0316 µM) was 33%, the viability, T/C (second compound 0.003 µM, first compound 0.1 µM) was 31.1% and the viability, T/C (second compound 0.003 µM, first compound 0.316 µM) was 29.7%. It also gave a viability, T/C (second compound 0.003 µM, first compound 1 µM) of 33.3%, a viability, T/C (second compound 0.003 µM, first compound 3.16 µM) of 31.2% and a viability, T/C (second compound 0.003 µM, first compound 10 µM) of 25.3%. The viability, T/C (second compound 0.00949 µM, first compound 0.0316 µM) was 32.8%, the viability, T/C (second compound 0.00949 µM, first compound 0.1 µM) was 27.5% and the viability, T/C (second compound 0.00949 µM, first compound 0.316 µM) was 30.9%. The viability, T/C (second compound 0.00949 µM, first compound 1 µM) was 30.9%, the viability, T/C (second compound 0.00949 µM, first compound 3.16 µM) was 30.8% and the viability, T/C (second compound 0.00949 µM, first compound 10 µM) was 24.5%. For the same compound, the viability, T/C (second compound 0.03 µM, first compound 0.0316 µM) was 30.7%, the viability, T/C (second compound 0.03 µM, first compound 0.1 µM) was 30.1% and the viability, T/C (second compound 0.03 µM, first compound 0.316 µM) was 28.1%. The viability, T/C (second compound 0.03 µM, first compound 1 µM) was 29.3%, the viability, T/C (second compound 0.03 µM, first compound 3.16 µM) was 26.9% and the viability, T/C (second compound 0.03 µM, first compound 10 µM) was 27.9%. It also gave a viability, T/C (second compound 0.0949 µM, first compound 0.0316 µM) of 25.8%, a viability, T/C (second compound 0.0949 µM, first compound 0.1 µM) of 29.3% and a viability, T/C (second compound 0.0949 µM, first compound 0.316 µM) of 31.6%. The viability, T/C (second compound 0.0949 µM, first compound 1 µM) was 28.6%, the viability, T/C (second compound 0.0949 µM, first compound 3.16 µM) was 23.6% and the viability, T/C (second compound 0.0949 µM, first compound 10 µM) was 28.4%. The viability, T/C (second compound 0.3 µM, first compound 0.0316 µM) was 27.3%, the viability, T/C (second compound 0.3 µM, first compound 0.1 µM) was 27.4% and the viability, T/C (second compound 0.3 µM, first compound 0.316 µM) was 31%. It also gave a viability, T/C (second compound 0.3 µM, first compound 1 µM) of 23.1%, a viability, T/C (second compound 0.3 µM, first compound 3.16 µM) of 26.3% and a viability, T/C (second compound 0.3 µM, first compound 10 µM) of 27.4%.

With Nc1ccn(C2OC(CO)C(O)C2(F)F)c(=O)n1 (configuration not stated) + C#Cc1c(F)ccc2cc(O)cc(-c3ncc4c(N5CC6CCC(C5)N6)nc(OCC56CCCN5CC(F)C6)nc4c3F)c12 the IC50 (second compound 0.0316 µM) was 5.53 nM, the IC50 (second compound 0.1 µM) was 5.82 nM and the IC50 (second compound 0.316 µM) was 5.83 nM. The IC50 (second compound 1 µM) was 4.97 nM, the IC50 (second compound 3.16 µM) was less than 3.16 nM and the IC50 (second compound 10 µM) was less than 3.16 nM. For the same compound, the viability, T/C (second compound 0.0316 µM, first compound 0.00316 µM) was 79.1%, the viability, T/C (second compound 0.0316 µM, first compound 0.01 µM) was 19.3% and the viability, T/C [1] was 9.28%. The viability, T/C [2] was 9.72%, the viability, T/C [3] was 8.73% and the viability, T/C [4] was 9.82%. For the same compound, the viability, T/C (second compound 0.1 µM, first compound 0.00316 µM) was 86.3%, the viability, T/C (second compound 0.1 µM, first compound 0.01 µM) was 17.8% and the viability, T/C [5] was 8.54%. It also gave a viability, T/C [6] of 7.52%, a viability, T/C [7] of 10.5% and a viability, T/C [8] of 8.63%. It also gave a viability, T/C (second compound 0.316 µM, first compound 0.00316 µM) of 88.8%, a viability, T/C (second compound 0.316 µM, first compound 0.01 µM) of 15.8% and a viability, T/C [9] of 7.89%. For the same compound, the viability, T/C [10] was 5.29%, the viability, T/C [11] was 6.95% and the viability, T/C [12] was 7.88%. The viability, T/C (second compound 1 µM, first compound 0.00316 µM) was 74.8%, the viability, T/C (second compound 1 µM, first compound 0.01 µM) was 12.1% and the viability, T/C [13] was 4.25%. The viability, T/C [14] was 5%, the viability, T/C [15] was 5.26% and the viability, T/C [16] was 7.16%. It also gave a viability, T/C (second compound 3.16 µM, first compound 0.00316 µM) of 45.2%, a viability, T/C (second compound 3.16 µM, first compound 0.01 µM) of 5.88% and a viability, T/C [17] of 3.82%. It also gave a viability, T/C [18] of 2.55%, a viability, T/C [19] of 3.3% and a viability, T/C [20] of 3.59%. For the same compound, the viability, T/C (second compound 10 µM, first compound 0.00316 µM) was 23.2%, the viability, T/C (second compound 10 µM, first compound 0.01 µM) was 5.01% and the viability, T/C [21] was 4.01%. It also gave a viability, T/C [22] of 2.92%, a viability, T/C [23] of 3.19% and a viability, T/C [24] of 3.79%.

For CC1(C)CCC(Nc2ncc(C(F)(F)F)c(-c3c[nH]c4c(P(C)(C)=O)c(C#N)ccc34)n2)CN1 (configuration not stated), the viability, T/C (compound 0.000949 µM) was 86.7% [middle of 4 runs], the viability, T/C (compound 0.003 µM) was 73.2% [middle of 4 runs] and the viability, T/C (compound 0.00949 µM) was 51.7% [middle of 4 runs]. For the same compound, the viability, T/C (compound 0.03 µM) was 49.3% [middle of 4 runs], the viability, T/C (compound 0.0949 µM) was 45.9% [middle of 4 runs] and the viability, T/C (compound 0.3 µM) was 48% [middle of 4 runs].
